Data as given in patent publication US9255295B2, “Method for evaluating the sensitizing potential of a test compound” (IMMUNOSEARCH, priority 2010, dated 2016).
Where two headings read alike, the source gives them in different places.

Experiments:
[1] = tested on: ARE gene family (AKR1B10, AKR1C1, AKR1C2, CYP1B1, FTH1P, FTL, G6PD, GCLM, NQO2, SLC7A11, TXNRD1, UGT1A1, UGT1A9, YWHAZ, CD36, CYP1A1, GCLC, HMOX1, NQO1, PSME2 …)

Source text for EPISKIN model: “Sensitizing power” means the ability of a given compound to induce a sensitization reaction according to the concentration of said compound. Sensitizing power is dependent on the quantity of substance necessary to induce sensitization. Thus, the lower the sensitizing quantity necessary to induce a sensitizing response, the stronger the sensitizer is, and vice versa, the higher the sensitizing quantity necessary to induce a sensitizing response, the weaker the sensitizer is.
Thus, steps 1) and 2) will be done for each of the dilutions.

## Nc1ccccc1O [2-aminophenol]
[1]; 1%
  S100A8 expression compared to control: 1.2
  S100A8 grade (NUMBER OF GENES): 0 (if this expression is lower, the grade is 0)
  SLC7A11 expression compared to control: 3.2
  SLC7A11 grade (NUMBER OF GENES): 1 (If the expression is greater than 1.3 compared to the control, a grade of 11s given)
  TOTAL ARE (NUMBER OF GENES): 10
  TXNRD1 expression compared to control: 4.8
  TXNRD1 grade (NUMBER OF GENES): 1 (If the expression is greater than 1.3 compared to the control, a grade of 11s given)
  UGT1A1 expression compared to control: 1.6
  UGT1A1 grade (NUMBER OF GENES): 1 (If the expression is greater than 1.3 compared to the control, a grade of 11s given)
  UGT1A9 expression compared to control: 1.0
  UGT1A9 grade (NUMBER OF GENES): 0 (if this expression is lower, the grade is 0)
[1]; 10%
  AHR expression compared to control: 0.7
  AHR grade (NUMBER OF GENES): 0 (if this expression is lower, the grade is 0)
  AKR1B10 expression compared to control: 1.1
  AKR1B10 grade (NUMBER OF GENES): 0 (if this expression is lower, the grade is 0)
  AKR1C1 expression compared to control: 9.3
  AKR1C1 grade (NUMBER OF GENES): 1 (If the expression is greater than 1.3 compared to the control, a grade of 11s given)
  AKR1C2 expression compared to control: 3.4
  AKR1C2 grade (NUMBER OF GENES): 1 (If the expression is greater than 1.3 compared to the control, a grade of 11s given)
  ARE >1.3 (NUMBER OF GENES): 14
  CD36 expression compared to control: 0.5
  CD36 grade (NUMBER OF GENES): 0 (if this expression is lower, the grade is 0)
  CYP1A1 expression compared to control: 122.0
  CYP1A1 grade (NUMBER OF GENES): 1 (If the expression is greater than 1.3 compared to the control, a grade of 11s given)
  CYP1B1 expression compared to control: 45.1
  CYP1B1 grade (NUMBER OF GENES): 1 (If the expression is greater than 1.3 compared to the control, a grade of 11s given)
  FTH1P expression compared to control: 1.5
  FTH1P grade (NUMBER OF GENES): 1 (If the expression is greater than 1.3 compared to the control, a grade of 11s given)
  FTL expression compared to control: 2.5
  FTL grade (NUMBER OF GENES): 1 (If the expression is greater than 1.3 compared to the control, a grade of 11s given)
  GCLC expression compared to control: 2.3
  GCLC grade (NUMBER OF GENES): 1 (If the expression is greater than 1.3 compared to the control, a grade of 11s given)
  GCLM expression compared to control: 4.6
  GCLM grade (NUMBER OF GENES): 1 (If the expression is greater than 1.3 compared to the control, a grade of 11s given)
  HMOX1 expression compared to control: 1.7
  HMOX1 grade (NUMBER OF GENES): 1 (If the expression is greater than 1.3 compared to the control, a grade of 11s given)
  NQO1 expression compared to control: 2.5
  NQO1 grade (NUMBER OF GENES): 1 (If the expression is greater than 1.3 compared to the control, a grade of 11s given)
  NQO2 expression compared to control: 1.4
  NQO2 grade (NUMBER OF GENES): 1 (If the expression is greater than 1.3 compared to the control, a grade of 11s given)
  S100A8 expression compared to control: 1.2
  S100A8 grade (NUMBER OF GENES): 0 (if this expression is lower, the grade is 0)
  SLC7A11 expression compared to control: 3.8
  SLC7A11 grade (NUMBER OF GENES): 1 (If the expression is greater than 1.3 compared to the control, a grade of 11s given)
  TOTAL ARE (NUMBER OF GENES): 14
  TXNRD1 expression compared to control: 7.6
  TXNRD1 grade (NUMBER OF GENES): 1 (If the expression is greater than 1.3 compared to the control, a grade of 11s given)
  UGT1A1 expression compared to control: 1.8
  UGT1A1 grade (NUMBER OF GENES): 1 (If the expression is greater than 1.3 compared to the control, a grade of 11s given)
  UGT1A9 expression compared to control: 1.2
  UGT1A9 grade (NUMBER OF GENES): 0 (if this expression is lower, the grade is 0)
[1]; 50%
  AHR expression compared to control: 1.3
  AHR grade (NUMBER OF GENES): 0 (if this expression is lower, the grade is 0)
  AKR1B10 expression compared to control: 1.3
  AKR1B10 grade (NUMBER OF GENES): 1 (If the expression is greater than 1.3 compared to the control, a grade of 11s given)
  AKR1C1 expression compared to control: 8.6
  AKR1C1 grade (NUMBER OF GENES): 1 (If the expression is greater than 1.3 compared to the control, a grade of 11s given)
  AKR1C2 expression compared to control: 3.3
  AKR1C2 grade (NUMBER OF GENES): 1 (If the expression is greater than 1.3 compared to the control, a grade of 11s given)
  ARE >1.3 (NUMBER OF GENES): 14
  CD36 expression compared to control: 0.7
  CD36 grade (NUMBER OF GENES): 0 (if this expression is lower, the grade is 0)
  CYP1A1 expression compared to control: 66.5
  CYP1A1 grade (NUMBER OF GENES): 1 (If the expression is greater than 1.3 compared to the control, a grade of 11s given)
  CYP1B1 expression compared to control: 37.7
  CYP1B1 grade (NUMBER OF GENES): 1 (If the expression is greater than 1.3 compared to the control, a grade of 11s given)
  FTH1P expression compared to control: 2.0
  FTH1P grade (NUMBER OF GENES): 1 (If the expression is greater than 1.3 compared to the control, a grade of 11s given)
  FTL expression compared to control: 3.5
  FTL grade (NUMBER OF GENES): 1 (If the expression is greater than 1.3 compared to the control, a grade of 11s given)
  GCLC expression compared to control: 4.0
  GCLC grade (NUMBER OF GENES): 1 (If the expression is greater than 1.3 compared to the control, a grade of 11s given)
  GCLM expression compared to control: 4.7
  GCLM grade (NUMBER OF GENES): 1 (If the expression is greater than 1.3 compared to the control, a grade of 11s given)
  HMOX1 expression compared to control: 1.9
  HMOX1 grade (NUMBER OF GENES): 1 (If the expression is greater than 1.3 compared to the control, a grade of 11s given)
  NQO1 expression compared to control: 3.3
  NQO1 grade (NUMBER OF GENES): 1 (If the expression is greater than 1.3 compared to the control, a grade of 11s given)
  NQO2 expression compared to control: 1.3
  NQO2 grade (NUMBER OF GENES): 0 (if this expression is lower, the grade is 0)
  S100A8 expression compared to control: 1.3
  S100A8 grade (NUMBER OF GENES): 1 (If the expression is greater than 1.3 compared to the control, a grade of 11s given)
  SLC7A11 expression compared to control: 6.0
  SLC7A11 grade (NUMBER OF GENES): 1 (If the expression is greater than 1.3 compared to the control, a grade of 11s given)
  TOTAL ARE (NUMBER OF GENES): 14
  TXNRD1 expression compared to control: 6.4
  TXNRD1 grade (NUMBER OF GENES): 1 (If the expression is greater than 1.3 compared to the control, a grade of 11s given)
  UGT1A1 expression compared to control: 2.1
  UGT1A1 grade (NUMBER OF GENES): 1 (If the expression is greater than 1.3 compared to the control, a grade of 11s given)
  UGT1A9 expression compared to control: 0.4
  UGT1A9 grade (NUMBER OF GENES): 0 (if this expression is lower, the grade is 0)
EPISKIN model
  sensitizing power (class): STRONG
